Measured values: US10238638B2, “Benzothiazole and benzothiophene compounds” (Bristol-Myers Squibb Company, priority 2015, dated 2019)

Molecular target: PAR4 (Homo sapiens (Human), UniProt Q96RI0)
Assay: FLIPR assay in PAR4-expressing HEK293 cells (calcium mobilization)
Format: cell-based
Details: H-Ala-Phe(4-F)-Pro-Gly-Trp-Leu-Val-Lys-Asn-Gly-NH2-induced calcium mobilization, PAR4 antagonist activity
From the text: The FLIPR assay is an exemplary in vitro assay for measuring the activity of the PAR4 antagonists of the present invention. In this assay, intracellular calcium mobilization is induced in PAR4 expressing cells by a PAR4 agonist and calcium mobilization is monitored.
HEK293 cells stably expressing PAR4 were generated by a standard method of transfection of human PAR4 (F2R23) cDNA expression vector and selected based on PAR4 protein expression or mRNA expression. […] Therefore, the same cells were also used to determine selectivity against PAR1 and agonist activity for both receptors.
FLIPR-based calcium mobilization assay in HEK293 cells was used to measure PAR4 antagonism, agonism, and selectivity against PAR1. […] Counter screens for agonist activity and PAR1 antagonist activity were also performed. Briefly, PAR1/PAR4-expressing HEK293 cells were grown in DMEM (Life Technology, Grand Island, N.Y.) containing 10% heat-inactivated FBS, 1% Penicillin-Streptomycin, 10 μg/mL blasticidin, and 100 μg/mL Zeocin at 37° C. with 5% CO2. Cells were plated overnight prior to the experiment in a black 384-well Purecoat Amine clear bottom plate (Becton Dickinson Biosciences, San Jose, Calif.) at 10,000 cells/well in 30 μL growth medium and incubated in a humidified chamber at 37° C. with 5% CO2 overnight. Prior to compound addition, the cell medium was replaced with 40 μL of 1× calcium and magnesium-containing Hank's Balanced Saline Solution (HBSS) (with 20 mM HEPES) and 1:1000 diluted fluorescent calcium indicator (Codex Biosolutions, Gaithersburg, Md.). After a 30 minute incubation period at 37° C. and a further 30 minute incubation and equilibration period at room temperature, 20 μL test compound (diluted in 1×HBSS buffer) was added at various concentrations at 0.17% dimethyl sulfoxide (DMSO) final concentration. Changes in fluorescence intensity were measured using a Functional Drug Screening System (FDSS, Hamamatsu, Japan) to determine agonist activities. The cells were then incubated for 30 minutes at room temperature followed by addition of 20 μL of agonist peptide for antagonist activity measurement. […] Compound potency was derived from 11-point concentration-response curves.

Sequence of PAR4 (Q96RI0 18-385): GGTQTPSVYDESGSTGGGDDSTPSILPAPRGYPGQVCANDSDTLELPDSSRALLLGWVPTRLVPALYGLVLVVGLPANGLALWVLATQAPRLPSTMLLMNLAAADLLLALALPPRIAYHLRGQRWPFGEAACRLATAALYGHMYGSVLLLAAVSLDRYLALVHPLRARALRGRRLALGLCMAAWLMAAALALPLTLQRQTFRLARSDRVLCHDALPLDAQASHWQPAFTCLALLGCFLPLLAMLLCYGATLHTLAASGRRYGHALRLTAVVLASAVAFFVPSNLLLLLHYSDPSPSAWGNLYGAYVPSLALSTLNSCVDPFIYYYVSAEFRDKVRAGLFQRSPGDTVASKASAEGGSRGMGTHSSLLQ

Row | IC50 [nM] | SMILES
1 | 2000 | CCc1nn2cc(-c3nc4cc(OC)cc(OCc5csc(-c6ccc(C(=O)OC(C)(C)C)cc6)n5)c4s3)nc2s1 [Example 31, tert-Butyl 4-(4-(((2-(2-ethylimidazo[2,1-b][1,3,4]thiadiazol-6-yl)-5-methoxybenzo[d]thiazol-7-yl)oxy)methyl)thiazol-2-yl)benzoate]
2 | 3600 | CCc1nn2cc(-c3nc4cc(OC)cc(OCc5csc(-c6ccc(C(=O)N7CCC[C@H](O)C7)cc6)n5)c4s3)nc2s1 [Example 33, (S)-(4-(4-(((2-(2-Ethylimidazo[2,1-b][1,3,4]thiadiazol-6-yl)-5-methoxybenzo[d]thiazol-7-yl)oxy)methyl)thiazol-2-yl)phenyl)(3-hydroxypiperidin-1-yl)methanone]
3 | 1200 | CCc1nn2cc(-c3nc4cc(OC)cc(OCc5csc(-c6ccc(C(=O)N(C)C)cc6)n5)c4s3)nc2s1 [Example 35, 4-(4-(((2-(2-Ethylimidazo[2,1-b][1,3,4]thiadiazol-6-yl)-5-methoxybenzo[d]thiazol-7-yl)oxy)methyl)thiazol-2-yl)-N,N-dimethylbenzamide]
4 | 1300 | CCc1nn2cc(-c3nc4cc(OC)cc(OCc5csc(-c6ccc(C(=O)N7CCC(CCO)CC7)cc6)n5)c4s3)nc2s1 [Example 36, (4-(4-(((2-(2-Ethylimidazo[2,1-b][1,3,4]thiadiazol-6-yl)-5-methoxybenzo[d]thiazol-7-yl)oxy)methyl)thiazol-2-yl)phenyl)(4-(2-hydroxyethyl)piperidin-1-yl)methanone]
5 | 1600 | COc1cc(OCc2nc(-c3ccc(C(=O)N4CCC[C@H](O)C4)cc3)sc2C)c2sc(-c3cn4nc(C)sc4n3)nc2c1 [Example 38, (S)-(3-Hydroxypiperidin-1-yl)(4-(4-(((5-methoxy-2-(2-methylimidazo[2,1-b][1,3,4]thiadiazol-6-yl)benzo[d]thiazol-7-yl)oxy)methyl)-5-methylthiazol-2-yl)phenyl)methanone]
6 | 1100 | COc1cc(OCc2nc(-c3ccc(C(=O)N4CCC(CCO)CC4)cc3)sc2C)c2sc(-c3cn4nc(C)sc4n3)nc2c1 [Example 42, (4-(2-Hydroxyethyl)piperidin-1-yl)(4-(4-(((5-methoxy-2-(2-methylimidazo[2,1-b][1,3,4]thiadiazol-6-yl)benzo[d]thiazol-7-yl)oxy)methyl)-5-methylthiazol-2-yl)phenyl)methanone]
7 | 9900 | COc1cc(OCc2csc(-c3ccc(C(=O)N4CCC[C@H](O)C4)cc3)n2)c2sc(-c3cn4nc(C)ccc4n3)nc2c1 [Example 48, (S)-(3-Hydroxypiperidin-1-yl)(4-(4-(((5-methoxy-2-(6-methylimidazo[1,2-b]pyridazin-2-yl)benzo[d]thiazol-7-yl)oxy)methyl)thiazol-2-yl)phenyl)methanone]
8 | 930 | COc1cc(OCc2csc(-c3ccc(C(=O)N4CCC(C)(CO)CC4)cc3)n2)c2sc(-c3cn4nc(C)sc4n3)nc2c1 [Example 67]

The remaining lines, values behind:

Row | SMILES | IC50 [nM]
9 | COc1cc(OCc2csc(-c3ccc(C(=O)N(CCO)C(C)(C)C)cc3)n2)c2sc(-c3cn4nc(C5CC5)sc4n3)nc2c1 [Example 29, N-(tert-Butyl)-4-(4-(((2-(2-cyclopropylimidazo[2,1-b][1,3,4]thiadiazol-6-yl)-5-methoxybenzo[d]thiazol-7-yl)oxy)methyl)thiazol-2-yl)-N-(2-hydroxyethyl)benzamide] | 80000
10 | CCc1nn2cc(-c3nc4cc(OC)cc(OCc5csc(-c6ccc(C(=O)NCC(C)(C)CO)cc6)n5)c4s3)nc2s1 [Example 32, 4-(4-(((2-(2-Ethylimidazo[2,1-b][1,3,4]thiadiazol-6-yl)-5-methoxybenzo[d]thiazol-7-yl)oxy)methyl)thiazol-2-yl)-N-(3-hydroxy-2,2-dimethylpropyl)benzamide] | 1400
11 | CCc1nn2cc(-c3nc4cc(OC)cc(OCc5csc(-c6ccc(C(=O)N(C)[C@H]7CCOC7)cc6)n5)c4s3)nc2s1 [Example 34, (S)-4-(4-(((2-(2-Ethylimidazo[2,1-b][1,3,4]thiadiazol-6-yl)-5-methoxybenzo[d]thiazol-7-yl)oxy)methyl)thiazol-2-yl)-N-methyl-N-(tetrahydrofuran-3-yl)benzamide] | 1300
12 | COc1cc(OCc2nc(-c3ccc(C(=O)N(C)[C@H]4CCOC4)cc3)sc2C)c2sc(-c3cn4nc(C)sc4n3)nc2c1 [Example 39, (S)-4-(4-(((5-Methoxy-2-(2-methylimidazo[2,1-b][1,3,4]thiadiazol-6-yl)benzo[d]thiazol-7-yl)oxy)methyl)-5-methylthiazol-2-yl)-N-methyl-N-(tetrahydrofuran-3-yl)benzamide] | 1800
13 | COc1cc(OCc2nc(-c3ccc(C(=O)NCC(C)(C)CO)cc3)sc2C)c2sc(-c3cn4nc(C)sc4n3)nc2c1 [Example 40, N-(3-Hydroxy-2,2-dimethylpropyl)-4-(4-(((5-methoxy-2-(2-methylimidazo[2,1-b][1,3,4]thiadiazol-6-yl)benzo[d]thiazol-7-yl)oxy)methyl)-5-methylthiazol-2-yl)benzamide] | 1600
14 | COc1cc(OCc2nc(-c3ccc(C(=O)N(C)C)cc3)sc2C)c2sc(-c3cn4nc(C)sc4n3)nc2c1 [Example 41, 4-(4-(((5-Methoxy-2-(2-methylimidazo[2,1-b][1,3,4]thiadiazol-6-yl)benzo[d]thiazol-7-yl)oxy)methyl)-5-methylthiazol-2-yl)-N,N-dimethylbenzamide] | 1700
15 | COc1cc(OCc2csc(-c3ccc(C(=O)N(C)C)cc3)n2)c2sc(-c3cn4nc(C)ccc4n3)nc2c1 [Example 44, 4-(4-(((5-Methoxy-2-(6-methylimidazo[1,2-b]pyridazin-2-yl)benzo[d]thiazol-7-yl)oxy)methyl)thiazol-2-yl)-N,N-dimethylbenzamide] | 2600
16 | COc1cc(OCc2csc(-c3ccccc3)n2)c2sc(-c3cn4nc(C)ccc4n3)nc2c1 [Example 45, 5-Methoxy-2-(6-methylimidazo[1,2-b]pyridazin-2-yl)-7-((2-phenylthiazol-4-yl)methoxy)benzo[d]thiazole] | 1800
17 | COc1cc(OCc2csc(N3CCOCC3)n2)c2sc(-c3cn4nc(C)ccc4n3)nc2c1 [Example 46, 4-(4-(((5-Methoxy-2-(6-methylimidazo[1,2-b]pyridazin-2-yl)benzo[d]thiazol-7-yl)oxy)methyl)thiazol-2-yl)morpholine] | 2500
18 | COc1cc(OCc2csc(-c3ccc(C(=O)N(C)[C@H]4CCOC4)cc3)n2)c2sc(-c3cn4nc(C)ccc4n3)nc2c1 [Example 47, (S)-4-(4-(((5-Methoxy-2-(6-methylimidazo[1,2-b]pyridazin-2-yl)benzo[d]thiazol-7-yl)oxy)methyl)thiazol-2-yl)-N-methyl-N-(tetrahydrofuran-3-yl)benzamide] | 6400

Molecular target: PAR1 (Homo sapiens (Human), UniProt P25116)
Sequence (P25116 22-425): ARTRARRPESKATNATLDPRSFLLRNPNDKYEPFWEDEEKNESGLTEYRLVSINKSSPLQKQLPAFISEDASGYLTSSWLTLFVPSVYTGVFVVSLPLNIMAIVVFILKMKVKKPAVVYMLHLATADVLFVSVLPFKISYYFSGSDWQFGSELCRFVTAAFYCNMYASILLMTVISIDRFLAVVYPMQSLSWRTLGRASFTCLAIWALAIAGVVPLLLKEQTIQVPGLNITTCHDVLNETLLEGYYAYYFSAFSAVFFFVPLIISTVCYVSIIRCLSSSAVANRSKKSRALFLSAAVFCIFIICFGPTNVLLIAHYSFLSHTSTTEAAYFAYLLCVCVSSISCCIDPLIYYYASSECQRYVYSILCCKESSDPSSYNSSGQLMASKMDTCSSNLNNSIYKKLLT
Assay: not given
Details: ACS patients, phase III; cited from earlier work

Row | SMILES | cardiovascular events | risk of major bleeding
19 | CCOC(=O)N[C@@H]1CC[C@@H]2[C@@H](C1)C[C@H]1C(=O)O[C@H](C)[C@H]1[C@H]2/C=C/c1ccc(-c2cccc(F)c2)cn1 [vorapaxar] | did not significantly reduce | significantly increased
